From patent publication US12433510B2, “Methods and systems for improved collection of interstitial fluid” (Georgia Tech Research Corporation, priority 2017, dated 2025)
Like-named read-outs stand apart in the source and are kept apart here. One block for each molecule: values may come before it.

What was measured:
[1] = human, in vivo
clinical = settings: human, in vivo
in vivo = settings: female, Wistar, rat, 1 mg/kg; for AUC: mean ± SD, n = 6 rats
[2] = iv, ISF, 1 mg/kg bolus intravenous
[3] = iv, Serum, 1 mg/kg bolus intravenous

Structure (SMILES): CCN=c1cc2oc3cc(NCC)c(C)cc3c(-c3ccccc3C(=O)OCC)c-2cc1C.Cl [R6G, rhodamine 6G]
R6G concentration in protein-free serum samples (plasma proteins): 0.05 ± 0.03 µM
R6G concentration in serum prior to filtration (plasma proteins): 9.6 ± 4.2 µM
binding to plasma proteins (plasma proteins): strongly binds to plasma proteins

CL [1]: 4.7 L/h
t1/2 [1]: 450 min
Cmax ([1]; 43 mg): 1030 ng/mL
Cmax (clinical; 43 mg, Cmax): 1060 ng/mL
AUC(0-t) (clinical; AUC(0-8 h)): 84 ng·h/mL
clearance (clinical; CL): 68.3 mL/min
half-life (clinical; t1/2): 564 min
Structure (SMILES): Cn1c(=O)c2c(ncn2C)n(C)c1=O [caffeine]

Structure (SMILES): CN[C@H](CC(C)C)C(=O)N[C@H]1C(=O)N[C@@H](CC(N)=O)C(=O)N[C@H]2C(=O)N[C@H]3C(=O)N[C@H](C(=O)N[C@H](C(=O)O)c4cc(O)cc(O)c4-c4cc3ccc4O)[C@H](O)c3ccc(c(Cl)c3)Oc3cc2cc(c3O[C@@H]2O[C@H](CO)[C@@H](O)[C@H](O)[C@H]2O[C@H]2C[C@](C)(N)[C@H](O)[C@H](C)O2)Oc2ccc(cc2Cl)[C@H]1O [vancomycin]
Tmax Ratio (ISF:serum) (1 mg/kg bolus intravenous): 2.7 ± 1.6
slope of linear correlation of paired ISF and serum drug levels (R2=0.40): 0.75±0.06
Tmax (in vivo; delay in time to peak concentration (Tmax) in ISF compared to serum): ~17 min
Kp (in vivo; iv, AUC Ratio (ISF:serum), 1 mg/kg bolus intravenous): 1.3 ± 0.2
AUC (in vivo; [2]): 2300 ng·h/mL
AUC (in vivo; [3]): 1770 ng·h/mL
Kp (in vivo; iv, Cmax Ratio (ISF:serum), 1 mg/kg bolus intravenous): 0.9 ± 0.2
Cmax (in vivo; [2]): 2500 ± 1000 ng/mL
Cmax (in vivo; [3]): 2600 ± 600 ng/mL
Tmax (in vivo; iv, Tmax, ISF, 1 mg/kg bolus intravenous): 26.6 min
Tmax (in vivo; iv, Tmax, Serum, 1 mg/kg bolus intravenous): 10 min
